{"source": "patent US4469707A", "about": "“Method for treatment of senile dementia” (Astra Lakemedel Aktiebolag, priority 1983, dated 1984)", "key": {"[1]": {"tested_on": "physostigmine induced tremor", "assay": "Potentiation of physostigmine induced tremor", "type": "in vivo", "conditions": "mice; for Mean tremor score after pretreatment: score 0-2", "protocol": "(§1) Saline was administered as a blank. The tremor intensity was assessed visually for a 60 min period starting from the injection of oxotremorine and physostigmine respectively. The following rating scores were used:\n(§2) 1--moderate or discontinuous tremor of the head and forelimbs\n(§3) 2--strong tremor involving the whole body"}, "[2]": {"tested_on": "tremor", "assay": "Tremor caused by alaproclate per se", "type": "in vivo, mice", "conditions": "in words", "protocol": "Saline was administered as a blank. The tremor intensity was assessed visually for a 60 min period starting from the injection of oxotremorine and physostigmine respectively."}, "[3]": {"tested_on": "oxotremorine induced tremor", "assay": "Potentiation of oxotremorine induced tremor", "type": "in vivo", "conditions": "mice; for Mean tremor score after pretreatment: score 0-2", "protocol": "as §1, §2, §3"}}, "note": "Entries after “also recorded” stand apart in the source; their conditions may differ.", "data": [{"compound": "CC(N)C(=O)OC(C)(C)Cc1ccc(Cl)cc1", "note": "(stereo not drawn) [Alaproclate, 2-(4-chloro-phenyl)-1,1-dimethylethyl-2-aminopropanoate]", "values": [{"measurement": "Potentiation of physostigmine induced tremor", "setting": "[1]; in words", "result": "able to enhance; also recorded: potentiates"}, {"measurement": "Mean tremor score after pretreatment", "setting": "[1]; alaproclate 20 mg/kg i.p., 5 min after physostigmine 200 μg/kg s.c.", "result": "0,3"}, {"measurement": "Mean tremor score after pretreatment", "setting": "[1]; alaproclate 20 mg/kg i.p., 10 min after physostigmine 200 μg/kg s.c.", "result": "0,8"}, {"measurement": "Mean tremor score after pretreatment", "setting": "[1]; alaproclate 20 mg/kg i.p., 15 min after physostigmine 200 μg/kg s.c.", "result": "0,8"}, {"measurement": "Mean tremor score after pretreatment", "setting": "[1]; alaproclate 40 mg/kg i.p., 5 min after physostigmine 200 μg/kg s.c.", "result": "0,3"}, {"measurement": "Mean tremor score after pretreatment", "setting": "[1]; alaproclate 40 mg/kg i.p., 10 min after physostigmine 200 μg/kg s.c.", "result": "1,0"}, {"measurement": "Mean tremor score after pretreatment", "setting": "[1]; alaproclate 40 mg/kg i.p., 15 min after physostigmine 200 μg/kg s.c.", "result": "0,7"}, {"measurement": "Mean tremor score after pretreatment", "setting": "[1]; alaproclate 40 mg/kg i.p., 30 min after physostigmine 200 μg/kg s.c.", "result": "0,3"}, {"measurement": "Mean tremor score after pretreatment", "setting": "[1]; alaproclate 60 mg/kg i.p., 5 min after physostigmine 200 μg/kg s.c.", "result": "0,7"}, {"measurement": "Mean tremor score after pretreatment", "setting": "[1]; alaproclate 60 mg/kg i.p., 10 min after physostigmine 200 μg/kg s.c.", "result": "1,3"}, {"measurement": "Mean tremor score after pretreatment", "setting": "[1]; alaproclate 60 mg/kg i.p., 15 min after physostigmine 200 μg/kg s.c.", "result": "0,8"}, {"measurement": "Mean tremor score after pretreatment", "setting": "[1]; alaproclate 60 mg/kg i.p., 30 min after physostigmine 200 μg/kg s.c.", "result": "0,7"}, {"measurement": "Tremor caused by the compound per se", "setting": "[2]", "result": "does not cause tremor"}, {"measurement": "Potentiation of oxotremorine induced tremor", "setting": "[3]; in words", "result": "able to enhance; also recorded: potentiates"}, {"measurement": "Mean tremor score after pretreatment", "setting": "[3]; alaproclate 20 mg/kg i.p., 10 min after oxotremorine 100 μg/kg s.c.", "result": "0,7"}, {"measurement": "Mean tremor score after pretreatment", "setting": "[3]; alaproclate 20 mg/kg i.p., 15 min after oxotremorine 100 μg/kg s.c.", "result": "1,0"}, {"measurement": "Mean tremor score after pretreatment", "setting": "[3]; alaproclate 20 mg/kg i.p., 30 min after oxotremorine 100 μg/kg s.c.", "result": "0,8"}, {"measurement": "Mean tremor score after pretreatment", "setting": "[3]; alaproclate 40 mg/kg i.p., 5 min after oxotremorine 100 μg/kg s.c.", "result": "0,3"}, {"measurement": "Mean tremor score after pretreatment", "setting": "[3]; alaproclate 40 mg/kg i.p., 10 min after oxotremorine 100 μg/kg s.c.", "result": "1,0"}, {"measurement": "Mean tremor score after pretreatment", "setting": "[3]; alaproclate 40 mg/kg i.p., 15 min after oxotremorine 100 μg/kg s.c.", "result": "1,3"}, {"measurement": "Mean tremor score after pretreatment", "setting": "[3]; alaproclate 40 mg/kg i.p., 30 min after oxotremorine 100 μg/kg s.c.", "result": "1,2"}, {"measurement": "Mean tremor score after pretreatment", "setting": "[3]; alaproclate 40 mg/kg i.p., 60 min after oxotremorine 100 μg/kg s.c.", "result": "0,5"}, {"measurement": "Mean tremor score after pretreatment", "setting": "[3]; alaproclate 60 mg/kg i.p., 5 min after oxotremorine 100 μg/kg s.c.", "result": "0,1"}, {"measurement": "Mean tremor score after pretreatment", "setting": "[3]; alaproclate 60 mg/kg i.p., 10 min after oxotremorine 100 μg/kg s.c.", "result": "1,0"}, {"measurement": "Mean tremor score after pretreatment", "setting": "[3]; alaproclate 60 mg/kg i.p., 15 min after oxotremorine 100 μg/kg s.c.", "result": "1,5"}, {"measurement": "Mean tremor score after pretreatment", "setting": "[3]; alaproclate 60 mg/kg i.p., 30 min after oxotremorine 100 μg/kg s.c.", "result": "1,6"}, {"measurement": "Mean tremor score after pretreatment", "setting": "[3]; alaproclate 60 mg/kg i.p., 60 min after oxotremorine 100 μg/kg s.c.", "result": "1,0"}]}]}
